Laboratory results: patent publication US20250366475A1, “HERBICIDAL COMBINATIONS AND A METHOD FOR CONTROLLING UNDESIRED VEGETATION” (UPL Mauritius Limited, priority 2022, published 2025)

Tested on: Brachiaria decumbens
Assay: Post-emergence herbicidal activity, efficacy on Brachiaria decumbens (Colby method for expected efficacy)
Format: in vivo
Method: Methodology: Trials were conducted to evaluate the efficacy of the combinations comprising L-glufosinate ammonium and the additional herbicides on Brachiaria genus weeds.
All treatments were in 4 replications per treatment with a spray volume of about 150 L/ha.
Efficacy Evaluation: The expected efficacy of a combination comprising L-glufosinate ammonium and additional herbicides was calculated using the well-established Colby method.
In the Colby method, the expected (or predicted) response of a combination of herbicides is calculated by taking the product of the observed response for each individual component of the combination when applied alone, divided by 100, and subtracting this value from the sum of the observed response for each component when applied alone. An unexpected enhancement in efficacy of the combination is then determined by comparing the observed response of the combination to the expected (or predicted) response as calculated from the observed response of each individual component alone. […] The Colby method requires only a single dose of each herbicide applied alone and the mixture of both doses. The formula used to calculate the expected efficacy (EE) which was compared with the observed efficacy (OE) to determine the efficacy of the present disclosure is explained hereinbelow:
The expected efficacy for a combination of two active ingredients is as follows:
[formula] • wherein, • A=Observed efficacy of active ingredient A at the same concentration as used in the mixture. • B=Observed efficacy of the active ingredient B at the same concentration as used in the mixture.

## CCc1cccc(C)c1N(COC(C)C)C(=O)CCl [Propisochlor]
540 g a.i./ha, 7 DAA, Table 12
  Observed efficacy (%): 0%
540 g a.i./ha, 14 DAA, Table 12
  Observed efficacy (%): 0%
540 g a.i./ha, 21 DAA, Table 12
  Observed efficacy (%): 0%
540 g a.i./ha, 28 DAA, Table 12
  Observed efficacy (%): 0%

## CCc1cccc(C)c1N(C(=O)CCl)[C@@H](C)COC [S-metolachlor]
960 g a.i./ha, 7 DAA, Table 7
  Observed efficacy (%): 0%
960 g a.i./ha, 14 DAA, Table 7
  Observed efficacy (%): 0%
960 g a.i./ha, 21 DAA, Table 7
  Observed efficacy (%): 0%
960 g a.i./ha, 28 DAA, Table 7
  Observed efficacy (%): 0%

## Cc1ccc2c(c1)[C@H](Nc1nc(N)nc(C(C)F)n1)[C@@H](C)C2 (some centres unmarked) [Indaziflam]
50 g a.i./ha, 7 DAA, Table 8
  Observed efficacy (%): 50%
50 g a.i./ha, 14 DAA, Table 8
  Observed efficacy (%): 75%
50 g a.i./ha, 21 DAA, Table 8
  Observed efficacy (%): 90%

## CS(=O)(=O)c1ccc(C(=O)C2C(=O)CCCC2=O)c(Cl)c1COCC(F)(F)F [tembotrione, Tembotrione]
53 g a.i./ha, 3 DAA, Table 13
  Observed efficacy (%): 8%

## CCOC(=O)C(C)Oc1ccc(Oc2cnc3cc(Cl)ccc3n2)cc1 (centres unmarked) [quizalofop-ethyl, Quizalofop-ethyl]
25 g a.i./ha, 28 DAA, Table 14
  Observed efficacy (%): 35%
25 g a.i./ha, 35 DAA, Table 14
  Observed efficacy (%): 30%

## CCN(CC)C(=O)C(C)Oc1cccc2ccccc12 (centres unmarked) [napropamide, Napropamide]
675 g a.i./ha, 7 DAA, Table 11
  Observed efficacy (%): 5%
675 g a.i./ha, 14 DAA, Table 11
  Observed efficacy (%): 5%
675 g a.i./ha, 21 DAA, Table 11
  Observed efficacy (%): 5%
675 g a.i./ha, 28 DAA, Table 11
  Observed efficacy (%): 0%

## CP(=O)(O)CC[C@H](N)C(=O)O.N [L-glufosinate ammonium]
150 g a.i./ha, 3 DAA, Table 13
  Observed efficacy (%): 40%
150 g a.i./ha, 3 DAA, Table 16
  Observed efficacy (%): 40%
150 g a.i./ha, 7 DAA, Table 7
  Observed efficacy (%): 65%
150 g a.i./ha, 7 DAA, Table 8
  Observed efficacy (%): 75%
150 g a.i./ha, 7 DAA, Table 9
  Observed efficacy (%): 70%
150 g a.i./ha, 7 DAA, Table 10
  Observed efficacy (%): 65%
150 g a.i./ha, 7 DAA, Table 11
  Observed efficacy (%): 75%
150 g a.i./ha, 7 DAA, Table 12
  Observed efficacy (%): 65%
150 g a.i./ha, 14 DAA, Table 7
  Observed efficacy (%): 70%
150 g a.i./ha, 14 DAA, Table 8
  Observed efficacy (%): 65%
150 g a.i./ha, 14 DAA, Table 9
  Observed efficacy (%): 65%
150 g a.i./ha, 14 DAA, Table 10
  Observed efficacy (%): 70%
150 g a.i./ha, 14 DAA, Table 11
  Observed efficacy (%): 85%
150 g a.i./ha, 14 DAA, Table 12
  Observed efficacy (%): 70%
150 g a.i./ha, 14 DAA, Table 15
  Observed efficacy (%): 75%
150 g a.i./ha, 21 DAA, Table 7
  Observed efficacy (%): 70%
150 g a.i./ha, 21 DAA, Table 8
  Observed efficacy (%): 60%
150 g a.i./ha, 21 DAA, Table 9
  Observed efficacy (%): 60%
150 g a.i./ha, 21 DAA, Table 10
  Observed efficacy (%): 70%
150 g a.i./ha, 21 DAA, Table 11
  Observed efficacy (%): 85%
150 g a.i./ha, 21 DAA, Table 12
  Observed efficacy (%): 70%
150 g a.i./ha, 21 DAA, Table 15
  Observed efficacy (%): 70%
150 g a.i./ha, 28 DAA, Table 7
  Observed efficacy (%): 60%
150 g a.i./ha, 28 DAA, Table 9
  Observed efficacy (%): 60%
150 g a.i./ha, 28 DAA, Table 10
  Observed efficacy (%): 60%
150 g a.i./ha, 28 DAA, Table 11
  Observed efficacy (%): 85%
150 g a.i./ha, 28 DAA, Table 12
  Observed efficacy (%): 60%
150 g a.i./ha, 28 DAA, Table 14
  Observed efficacy (%): 60%
150 g a.i./ha, 28 DAA, Table 15
  Observed efficacy (%): 60%
150 g a.i./ha, 35 DAA, Table 14
  Observed efficacy (%): 55%
150 g a.i./ha, 35 DAA, Table 15
  Observed efficacy (%): 55%

## CS(=O)(=O)c1cc(C(F)(F)F)ccc1C(=O)c1cnoc1C1CC1 [Isoxaflutole]
60 g a.i./ha, 7 DAA, Table 9
  Observed efficacy (%): 45%
60 g a.i./ha, 14 DAA, Table 9
  Observed efficacy (%): 70%
60 g a.i./ha, 21 DAA, Table 9
  Observed efficacy (%): 85%
60 g a.i./ha, 28 DAA, Table 9
  Observed efficacy (%): 75%

## C[C@@H](Oc1ccc(Oc2cnc3cc(Cl)ccc3n2)cc1)C(=O)OCC1CCCO1 (some centres unmarked) [quizalofop-p-tefuryl, Quizalofop-p-tefuryl]
25 g a.i./ha, 14 DAA, Table 15
  Observed efficacy (%): 20%
25 g a.i./ha, 21 DAA, Table 15
  Observed efficacy (%): 10%
25 g a.i./ha, 28 DAA, Table 15
  Observed efficacy (%): 5%
25 g a.i./ha, 35 DAA, Table 15
  Observed efficacy (%): 5%

## Cn1nc(C(F)(F)F)c(CS(=O)(=O)C2=NOC(C)(C)C2)c1OC(F)F [Pyroxasulfone]
75 g a.i./ha, 7 DAA, Table 10
  Observed efficacy (%): 0%
75 g a.i./ha, 14 DAA, Table 10
  Observed efficacy (%): 15%
75 g a.i./ha, 21 DAA, Table 10
  Observed efficacy (%): 25%
75 g a.i./ha, 28 DAA, Table 10
  Observed efficacy (%): 20%

## CS(=O)(=O)c1ccc(C(=O)C2C(=O)CCCC2=O)c([N+](=O)[O-])c1 [mesotrione, Mesotrione]
100 g a.i./ha, 3 DAA, Table 16
  Observed efficacy (%): 10%
